Values of other authors as cited in US20190281871A1, “CHICORY PRODUCTS CONTAINING CANNABINOIDS” (Full Spectrum Laboratories Ltd, priority 2016, published 2019).

Columns and labels:
CB1 receptor = CB1 receptor (Homo sapiens, UniProt P21554)
5-HT1A receptor = target: T1, 5-HT1A receptor (Homo sapiens, UniProt P08908)
T1 sequence (P08908 1-422): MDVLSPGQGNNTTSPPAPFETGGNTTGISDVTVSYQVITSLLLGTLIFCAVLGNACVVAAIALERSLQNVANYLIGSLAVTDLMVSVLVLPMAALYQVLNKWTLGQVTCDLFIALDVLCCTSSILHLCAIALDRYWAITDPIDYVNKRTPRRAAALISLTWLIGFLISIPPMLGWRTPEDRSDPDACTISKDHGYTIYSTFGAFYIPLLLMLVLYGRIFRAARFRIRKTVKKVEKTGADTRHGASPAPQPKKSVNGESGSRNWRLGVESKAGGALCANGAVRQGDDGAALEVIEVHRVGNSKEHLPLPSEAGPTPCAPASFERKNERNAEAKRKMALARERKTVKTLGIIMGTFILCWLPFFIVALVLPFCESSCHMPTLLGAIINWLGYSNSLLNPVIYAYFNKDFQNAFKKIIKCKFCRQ

Sequence of CB1 receptor (P21554 whole entry): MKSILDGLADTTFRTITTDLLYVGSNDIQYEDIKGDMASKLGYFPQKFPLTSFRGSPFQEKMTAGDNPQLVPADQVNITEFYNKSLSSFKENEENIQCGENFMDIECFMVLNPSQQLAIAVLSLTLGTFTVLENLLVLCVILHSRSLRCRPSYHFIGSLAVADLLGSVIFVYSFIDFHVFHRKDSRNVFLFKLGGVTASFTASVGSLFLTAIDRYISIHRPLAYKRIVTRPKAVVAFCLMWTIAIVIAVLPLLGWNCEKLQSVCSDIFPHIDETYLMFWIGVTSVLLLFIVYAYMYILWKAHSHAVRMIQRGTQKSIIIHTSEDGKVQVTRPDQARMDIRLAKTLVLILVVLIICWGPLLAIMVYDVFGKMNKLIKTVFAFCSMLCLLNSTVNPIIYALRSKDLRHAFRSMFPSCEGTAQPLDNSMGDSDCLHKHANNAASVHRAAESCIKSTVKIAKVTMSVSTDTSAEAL

SMILES: CCCCCc1cc(O)c(C/C=C(\C)CCC=C(C)C)c(O)c1 [CBG, cannabigerol]
- CB1 receptor antagonist affinity (CB1 receptor): low affinity
- 5-HT1A receptor antagonist affinity (5-HT1A receptor): moderate affinity
- α2-adrenergic receptor agonist affinity (α2-adrenergic receptor): high affinity
